Laboratory results taken from patent US7741341B2, “Benzimidazole-derivatives as factor Xa inhibitors” (sanofi-aventis Deutschland GmbH, priority 2003, dated 2010).

Each compound was assayed against T1, human factor Xa (Homo sapiens, UniProt P00742) (assay: Factor Xa assay (chromogenic, substrate S-2765)). Settings: read-out: Ki(FXa).
T1 construct: human factor Xa (Enzyme Research Laboratories, Inc; South Bend, Ind.); purchased Enzyme Research Laboratories, Inc; South Bend, Ind
Assay type: biochemical
Procedure: Purified enzymes were used in chromogenic assays.
The IC50 was determined by combining in appropriate wells of a Costar half-area microtiter plate 25 μl human factor Xa (Enzyme Research Laboratories, Inc.; South Bend, Ind.) in TBS-PEG; 40 μl 10% (v/v) DMSO in TBS-PEG (uninhibited control) or various concentrations of the compound to be tested diluted in 10% (v/v) DMSO in TBS-PEG; and substrate S-2765 (N(α)-benzyloxycarbonyl-D-Arg-Gly-L-Arg-p-nitroanilide; Kabi Pharmacia, Inc.; Franklin, Ohio) in TBS-PEG.
The assay was performed by pre-incubating the compound of formula I plus enzyme for 10 min. Then the assay was initiated by adding substrate to obtain a final volume of 100 μl. […] The enzyme concentration was 0.5 nM and substrate concentration was 140 μM.

T1 sequence (P00742 235-488 limits assumed): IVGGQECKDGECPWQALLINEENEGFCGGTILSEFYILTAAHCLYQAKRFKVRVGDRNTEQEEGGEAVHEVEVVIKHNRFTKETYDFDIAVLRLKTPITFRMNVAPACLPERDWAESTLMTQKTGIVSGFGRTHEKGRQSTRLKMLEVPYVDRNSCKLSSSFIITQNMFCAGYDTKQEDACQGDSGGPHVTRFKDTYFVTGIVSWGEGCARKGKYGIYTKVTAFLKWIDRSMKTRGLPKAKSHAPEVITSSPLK
T1 sequence (P00742 41-179 partner limits assumed): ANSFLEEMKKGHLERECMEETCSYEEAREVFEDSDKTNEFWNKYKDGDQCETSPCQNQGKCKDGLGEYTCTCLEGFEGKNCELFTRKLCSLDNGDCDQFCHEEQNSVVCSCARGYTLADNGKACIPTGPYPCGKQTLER

| Ki [nM] | SMILES |
| --- | --- |
| 121 | CC(C)N1CCC(NC(=O)c2nc3ccc(C(=O)OCCO)cc3n2Cc2cc(-c3ccc(Cl)s3)on2)CC1 [Example 65, 3-[5-(5-Chloro-thiophen-2-yl)-isoxazol-3-ylmethyl]-2-(1-isopropyl-piperidin-4-ylcarbamoyl)-3H-benzoimidazole-5-carboxylic acid 2-hydroxy-ethyl ester] |
| 10.5 | CC(C)N1CCC(NC(=O)c2nc3c(C(=O)N4CCCOCC4)cccc3n2CC(=O)Nc2ccc(Cl)cn2)CC1 [Example 74, 1-[(5-Chloro-pyridin-2-ylcarbamoyl)-methyl]-4-([1,4]oxazepane-4-carbonyl)-1H-benzoimidazole-2-carboxylic acid (1-isopropyl-piperidin-4-yl)-amide] |
| 371 | COC(=O)c1ccc2nc(C(=O)NC3CCN(C(C)C)CC3)n(CC(=O)Nc3ccc(Cl)cn3)c2c1 [Example 17b, 3-[(5-Chloro-pyridin-2-ylcarbamoyl)-methyl]-2-(1-isopropyl-piperidin-4-ylcarbamoyl)-3H-benzoimidazole-5-carboxylic acid methyl ester] |
| 23.5 | CC(C)N1CCC(NC(=O)c2nc3ccc(C(=O)O)cc3n2CC(=O)Nc2ccc(Cl)cn2)CC1 [Example 19, 3-[(5-Chloro-pyridin-2-ylcarbamoyl)-methyl]-2-(1-isopropyl-piperidin-4-ylcarbamoyl)-3H-benzoimidazole-5-carboxylic acid] |
| 141 | O=C(Nc1ccc(N2CCNCC2=O)cc1)c1nc2ccccc2n1Cc1cc(-c2ccc(Cl)s2)on1 [Example 50, 1-[5-(5-Chloro-thiophen-2-yl)-isoxazol-3-ylmethyl]-1H-benzoimidazole-2-carboxylic acid [4-(2-oxo-piperazin-1-yl)-phenyl]-amide] |
| 3 | CC(C)N1CCC(NC(=O)c2nc3cc(C(=O)O)ccc3n2Cc2cc(-c3ccc(Cl)s3)on2)CC1 [Example 6, 1-[5-(5-Chloro-thiophen-2-yl)-isoxazol-3-ylmethyl]-2-(1-isopropyl-piperidin-4-ylcarbamoyl)-1H-benzoimidazole-5-carboxylic acid] |
| 26 | CC(C)N1CCC(NC(=O)c2nc3c(C(=O)N(C)CCO)cccc3n2Cc2cc(-c3ccc(Cl)s3)on2)CC1 [Example 24, 1-[5-(5-Chloro-thiophen-2-yl)-isoxazol-3-ylmethyl]-1H-benzoimidazole-2,4-dicarboxylic acid 4-[(2-hydroxy-ethyl)-methyl-amide] 2-[(1-isopropyl-piperidin-4-yl)-amide]] |
| 12.5 | COCCOCc1cccc2c1nc(C(=O)NC1CCN(C(C)C)CC1)n2CC(=O)Nc1ccc(Cl)cn1 [Example 72, 1-[(5-Chloro-pyridin-2-ylcarbamoyl)-methyl]-4-(2-methoxy-ethoxymethyl)-1H-benzoimidazole-2-carboxylic acid (1-isopropyl-piperidin-4-yl)-amide] |
| 28 | O=C(Cn1c(C(=O)Nc2ccc(-n3ccc(=O)[nH]c3=O)cc2)nc2ccccc21)Nc1ccc(Cl)cn1 [Example 44, 1-[(5-Chloro-pyridin-2-ylcarbamoyl)-methyl]-1H-benzoimidazole-2-carboxylic acid [4-(2,4-dioxo-3,4-dihydro-2H-pyrimidin-1-yl)-phenyl]-amide] |
| 1 | CC(C)N1CCC(NC(=O)c2nc3cc(C(=O)OCC(=O)O)ccc3n2Cc2cc(-c3ccc(Cl)s3)on2)CC1 [Example 79, 1-[5-(5-Chloro-thiophen-2-yl)-isoxazol-3-ylmethyl]-2-(1-isopropyl-piperidin-4-ylcarbamoyl)-1H-benzoimidazole-5-carboxylic acid carboxymethyl ester] |
| 2.6 | CC(C)N1CCC(NC(=O)c2nc3c(C(=O)N4C(C)CCCC4C)cccc3n2CC(=O)Nc2ccc(Cl)cn2)CC1 (centres unmarked) [Example 75, 1-[(5-Chloro-pyridin-2-ylcarbamoyl)-methyl]-4-(2,6-dimethyl-piperidine-1-carbonyl)-1H-benzoimidazole-2-carboxylic acid (1-isopropyl-piperidin-4-yl)-amide] |
| 21 | CC(C)N1CCC(NC(=O)c2nc3c(C(=O)N4CCC(O)CC4)cccc3n2Cc2cc(-c3ccc(Cl)s3)on2)CC1 [Example 91, 1-[5-(5-Chloro-thiophen-2-yl)-isoxazol-3-ylmethyl]-4-(4-hydroxy-piperidine-1-carbonyl)-1H-benzoimidazole-2-carboxylic acid (1-isopropyl-piperidin-4-yl)-amide] |
| 12 | O=C(Nc1ccc(-n2ccc(=O)cc2)cc1)c1nc2ccccc2n1Cc1cc(-c2ccc(Cl)s2)on1 [Example 37, 1-[5-(5-Chloro-thiophen-2-yl)-isoxazol-3-ylmethyl]-1H-benzoimidazole-2-carboxylic acid [4-(4-oxo-4H-pyridin-1-yl)-phenyl]-amide] |
| 19.5 | CC(OC(=O)OC1CCCCC1)OC(=O)c1cccc2c1nc(C(=O)NC1CCN(C(C)C)CC1)n2CC(=O)Nc1ccc(Cl)cn1 (centres unmarked) [Example 34, 1-[(5-Chloro-pyridin-2-ylcarbamoyl)-methyl]-2-(1-isopropyl-piperidin-4-ylcarbamoyl)-1H-benzoimidazole-4-carboxylic acid 1-cyclohexyloxycarbonyloxy-ethyl ester] |
| 25.5 | CC(C)N1CCC(NC(=O)c2nc3cc(S(=O)(=O)CCO)ccc3n2Cc2cc(-c3ccc(Cl)s3)on2)CC1 [Example 29a, 1-[5-(5-Chloro-thiophen-2-yl)-isoxazol-3-ylmethyl]-5-(2-hydroxy-ethanesulfonyl)-1H-benzoimidazole-2-carboxylic acid (1-isopropyl-piperidin-4-yl)-amide] |
| 20 | CC(C)N1CCC(NC(=O)c2nc3c(C(=O)N4CCCOCC4)scc3n2CC(=O)Nc2ccc(Cl)cn2)CC1 [Example 104, 3-[(5-Chloro-pyridin-2-ylcarbamoyl)-methyl]-6-([1,4]oxazepane-4-carbonyl)-3H-thieno[3,4-d]imidazole-2-carboxylic acid (1-isopropyl-piperidin-4-yl)-amide] |
| 54500 | COC(=O)c1sc(OCC(F)(F)F)c2nc(C(=O)NC3CCN(C(C)C)CC3)n(Cc3cc(-c4ccc(Cl)s4)on3)c12 [Example 105, 3-[5-(5-Chloro-thiophen-2-yl)-isoxazol-3-ylmethyl]-2-(1-isopropyl-piperidin-4-ylcarbamoyl)-6-(2,2,2-trifluoro-ethoxy)-3H-thieno[3,4-d]imidazole-4-carboxylic acid methyl ester] |
| 462 | O=C(Nc1ccc(N2CCOC2=O)cc1)c1nc2ccccc2n1Cc1cc(-c2ccc(Cl)s2)on1 [Example 42, 1-[5-(5-Chloro-thiophen-2-yl)-isoxazol-3-ylmethyl]-1H-benzoimidazole-2-carboxylic acid [4-(2-oxo-oxazolidin-3-yl)-phenyl]-amide] |
| 299 | CC(C)N1CCC(NC(=O)c2nc3cccc(C(=O)O)c3n2Cc2cc(-c3ccc(Cl)s3)on2)CC1 [Example 13, 3-[5-(5-Chloro-thiophen-2-yl)-isoxazol-3-ylmethyl]-2-(1-isopropyl-piperidin-4-ylcarbamoyl)-3H-benzoimidazole-4-carboxylic acid] |
| 48 | CC(OC(=O)OC1CCCCC1)OC(=O)c1ccc2c(c1)nc(C(=O)NC1CCN(C(C)C)CC1)n2Cc1cc(-c2ccc(Cl)s2)on1 (centres unmarked) [Example 28, 1-[5-(5-Chloro-thiophen-2-yl)-isoxazol-3-ylmethyl]-2-(1-isopropyl-piperidin-4-ylcarbamoyl)-1H-benzoimidazole-5-carboxylic acid 1-cyclohexyloxycarbonyloxy-ethyl ester] |
| 19 | CCOC(=O)OC(C)OC(=O)c1ccc2c(c1)nc(C(=O)NC1CCN(C(C)C)CC1)n2CC(=O)Nc1ccc(Cl)cn1 (centres unmarked) [Example 62, 1-[(5-Chloro-pyridin-2-ylcarbamoyl)-methyl]-2-(1-isopropyl-piperidin-4-ylcarbamoyl)-1H-benzoimidazole-5-carboxylic acid 1-ethoxycarbonyloxy-ethyl ester] |
| 15 | COCCOC(=O)c1cccc2c1nc(C(=O)NC1CCN(C(C)C)CC1)n2CC(=O)Nc1ccc(Cl)cn1 [Example 70, 1-[(5-Chloro-pyridin-2-ylcarbamoyl)-methyl]-2-(1-isopropyl-piperidin-4-ylcarbamoyl)-1H-benzoimidazole-4-carboxylic acid 2-methoxy-ethyl ester] |
| 6 | O=C(Nc1ccc(-n2ccc(=O)[nH]c2=O)cc1)c1nc2ccccc2n1Cc1cc(-c2ccc(Cl)s2)on1 [Example 41, 1-[5-(5-Chloro-thiophen-2-yl)-isoxazol-3-ylmethyl]-1H-benzoimidazole-2-carboxylic acid [4-(2,4-dioxo-3,4-dihydro-2H-pyrimidin-1-yl)-phenyl]-amide] |
| 59.2 | O=C(NC1CCN(c2ccncn2)CC1)c1nc2ccccc2n1Cc1cc(-c2ccc(Cl)s2)on1 [Example 4, 1-[5-(5-Chloro-thiophen-2-yl)-isoxazol-3-ylmethyl]-1H-benzoimidazole-2-carboxylic acid (1-pyrimidin-4-yl-piperidin-4-yl)-amide] |
| 840 | O=C(Cn1c(C(=O)Nc2ccc(N3CCOC3=O)cc2)nc2ccccc21)Nc1ccc(Cl)cn1 [Example 43, 1-[(5-Chloro-pyridin-2-ylcarbamoyl)-methyl]-1H-benzoimidazole-2-carboxylic acid [4-(2-oxo-oxazolidin-3-yl)-phenyl]-amide] |
| 19.5 | COC(=O)c1ccc2c(c1)nc(C(=O)NC1CCN(C(C)C)CC1)n2CC(=O)Nc1ccc(Cl)cn1 [Example 17a, 1-[(5-Chloro-pyridin-2-ylcarbamoyl)-methyl]-2-(1-isopropyl-piperidin-4-ylcarbamoyl)-1H-benzoimidazole-5-carboxylic acid methyl ester] |
